The values that follow come from PubChem BioAssay AID1259407 (Chemical Carcinogenesis Research Information System (CCRIS), 2018).

SMILES strings stand for the structures. Active and inactive are the calls of the source. How the calls were made is not given here.

The data set relates to CCRIS mutagenicity, Ames/micronucleus/aberration tests. Put plainly: CCRIS mutagenicity studies.
[1] abbreviates: Test System: AMES SALMONELLA TYPHIMURIUM, Strain/Indicator: TA98, Metabolic Activation: NONE, Method: STANDARD PLATE.
[2] abbreviates: Test System: AMES SALMONELLA TYPHIMURIUM, Strain/Indicator: TA98, Metabolic Activation: RAT, LIVER, S-9, AROCLOR 1254, Method: STANDARD PLATE.
Setting [3] is: Test System: AMES SALMONELLA TYPHIMURIUM, Strain/Indicator: TA100, Metabolic Activation: NONE, Method: STANDARD PLATE.
The mark [4] stands for this setting: Test System: AMES SALMONELLA TYPHIMURIUM, Strain/Indicator: TA100, Metabolic Activation: RAT, LIVER, S-9, AROCLOR 1254, Method: STANDARD PLATE.
The mark [5] stands for this setting: Test System: AMES SALMONELLA TYPHIMURIUM, Strain/Indicator: TA1537, Metabolic Activation: NONE, Method: STANDARD PLATE.
The mark [6] stands for this setting: Test System: AMES SALMONELLA TYPHIMURIUM, Strain/Indicator: TA1537, Metabolic Activation: RAT, LIVER, S-9, AROCLOR 1254, Method: STANDARD PLATE.
Where [7] appears, read: Test System: AMES SALMONELLA TYPHIMURIUM, Strain/Indicator: TA98, Metabolic Activation: NONE, Method: PREINCUBATION
Where [8] appears, read: Test System: AMES SALMONELLA TYPHIMURIUM, Strain/Indicator: TA100, Metabolic Activation: HAMSTER, LIVER, S-9, AROCLOR 1254 (10%), Method: PREINCUBATION
Where [9] appears, read: Test System: AMES SALMONELLA TYPHIMURIUM, Strain/Indicator: TA100, Metabolic Activation: NONE, Method: PREINCUBATION
[10] abbreviates: Test System: AMES SALMONELLA TYPHIMURIUM, Strain/Indicator: TA100, Metabolic Activation: RAT, LIVER, S-9, AROCLOR 1254 (10%), Method: PREINCUBATION
Setting [11] is: Test System: AMES SALMONELLA TYPHIMURIUM, Strain/Indicator: TA1535, Metabolic Activation: HAMSTER, LIVER, S-9, AROCLOR 1254 (10%), Method: PREINCUBATION
[12] abbreviates: Test System: AMES SALMONELLA TYPHIMURIUM, Strain/Indicator: TA1535, Metabolic Activation: NONE, Method: PREINCUBATION
Where [13] appears, read: Test System: AMES SALMONELLA TYPHIMURIUM, Strain/Indicator: TA1535, Metabolic Activation: RAT, LIVER, S-9, AROCLOR 1254 (10%), Method: PREINCUBATION

With `O=c1[nH]c(=O)n([C@H]2C[C@H](O)[C@@H](CO)O2)cc1CO`, the mutagenic call by setting is: under setting [1], “inactive; negative”; under setting [2], “inactive; negative”; under setting [3], “active; positive”; under setting [4], “active; positive”; (Test System: AMES SALMONELLA TYPHIMURIUM, Strain/Indicator: TA102, Metabolic Activation: NONE, Method: STANDARD PLATE) “active; positive”; under setting [5], “inactive; negative”. For the same compound, the mutagenic call under setting [6] was “inactive; negative”; the mutagenic call (Test System: CHINESE HAMSTER V-79, Strain/Indicator: V-79/6-THIOGUANINE, Metabolic Activation: NONE) is “active; positive”; the mutagenic call (Test System: CHINESE HAMSTER V-79, Strain/Indicator: V-79/OUABAIN, Metabolic Activation: NONE) is “inactive; negative”.
In the case of `N#CCO`, the mutagenic call is “inactive; negative” (Test System: AMES SALMONELLA TYPHIMURIUM, Strain/Indicator: TA97, Metabolic Activation: HAMSTER, LIVER, S-9, AROCLOR 1254 (10%), Method: PREINCUBATION); “inactive; negative” (Test System: AMES SALMONELLA TYPHIMURIUM, Strain/Indicator: TA97, Metabolic Activation: HAMSTER, LIVER, S-9, AROCLOR 1254 (30%), Method: PREINCUBATION); “inactive; negative” (Test System: AMES SALMONELLA TYPHIMURIUM, Strain/Indicator: TA97, Metabolic Activation: NONE, Method: PREINCUBATION); “inactive; negative” (Test System: AMES SALMONELLA TYPHIMURIUM, Strain/Indicator: TA97, Metabolic Activation: RAT, LIVER, S-9, AROCLOR 1254 (10 OR 30%), Method: PREINCUBATION); “inactive; negative” (Test System: AMES SALMONELLA TYPHIMURIUM, Strain/Indicator: TA98, Metabolic Activation: HAMSTER, LIVER, S-9, AROCLOR 1254 (10%), Method: PREINCUBATION); “inactive; negative” (Test System: AMES SALMONELLA TYPHIMURIUM, Strain/Indicator: TA98, Metabolic Activation: HAMSTER, LIVER, S-9, AROCLOR 1254 (30%), Method: PREINCUBATION). Besides, the mutagenic call reads like this: under setting [7], “inactive; negative”; (Test System: AMES SALMONELLA TYPHIMURIUM, Strain/Indicator: TA98, Metabolic Activation: RAT, LIVER, S-9, AROCLOR 1254 (10%), Method: PREINCUBATION) “inactive; negative”; (Test System: AMES SALMONELLA TYPHIMURIUM, Strain/Indicator: TA98, Metabolic Activation: RAT, LIVER, S-9, AROCLOR 1254 (30%), Method: PREINCUBATION) “inactive; negative”; under setting [8], “inactive; negative”; (Test System: AMES SALMONELLA TYPHIMURIUM, Strain/Indicator: TA100, Metabolic Activation: HAMSTER, LIVER, S-9, AROCLOR 1254 (30%), Method: PREINCUBATION) “inactive; negative”; under setting [9], “inactive; negative”. For the same compound, the mutagenic call is “inactive; negative” under setting [10]; “inactive; negative” (Test System: AMES SALMONELLA TYPHIMURIUM, Strain/Indicator: TA100, Metabolic Activation: RAT, LIVER, S-9, AROCLOR 1254 (30%), Method: PREINCUBATION); “inactive; negative” under setting [11]; “inactive; negative” (Test System: AMES SALMONELLA TYPHIMURIUM, Strain/Indicator: TA1535, Metabolic Activation: HAMSTER, LIVER, S-9, AROCLOR 1254 (30%), Method: PREINCUBATION); “inactive; negative” under setting [12]; “inactive; negative” under setting [13]. In addition, the mutagenic call (Test System: AMES SALMONELLA TYPHIMURIUM, Strain/Indicator: TA1535, Metabolic Activation: RAT, LIVER, S-9, AROCLOR 1254 (30%), Method: PREINCUBATION) is “inactive; negative”.
For `O=C(O)C=C(C(Cl)Cl)C(Cl)Cl`, the mutagenic call by setting is: under setting [7], “inactive; negative”; under setting [9], “active; positive”; (Test System: AMES SALMONELLA TYPHIMURIUM, Strain/Indicator: TA104, Metabolic Activation: NONE, Method: PREINCUBATION) “inactive; negative”.
On to `ClC(Cl)(Cl)C1CO1` (stereo unspecified), for which the mutagenic call under setting [8] is “active; positive”; the mutagenic call under setting [9] is “active; positive”; the mutagenic call under setting [3] was “active; positive”; the mutagenic call under setting [10] is “active; positive”; the mutagenic call (Test System: AMES SALMONELLA TYPHIMURIUM, Strain/Indicator: TA104, Metabolic Activation: NONE, Method: STANDARD PLATE) was “active; positive”; the mutagenic call under setting [11] is “inactive; negative”. In addition, the mutagenic call under setting [12] was “active; positive”; the mutagenic call under setting [13] is “inactive; negative”; the mutagenic call (Test System: AMES SALMONELLA TYPHIMURIUM, Strain/Indicator: TA4001, Metabolic Activation: NONE, Method: STANDARD PLATE) was “active; positive”; the mutagenic call (Test System: AMES SALMONELLA TYPHIMURIUM, Strain/Indicator: TA4006, Metabolic Activation: NONE, Method: STANDARD PLATE) is “active; positive”.
As to `CCOC(=O)NNc1nncc2ccccc12`, the mutagenic call is, setting by setting: under setting [1], “inactive; negative”; under setting [2], “inactive; negative”; under setting [4], “inactive; negative”; (Test System: AMES SALMONELLA TYPHIMURIUM, Strain/Indicator: TA100, Metabolic Activation: RAT, LIVER, S-9, PHENOBARBITAL, Method: STANDARD PLATE) “active; positive”; (Test System: AMES SALMONELLA TYPHIMURIUM, Strain/Indicator: TA1535, Metabolic Activation: NONE, Method: STANDARD PLATE) “inactive; negative”; (Test System: AMES SALMONELLA TYPHIMURIUM, Strain/Indicator: TA1535, Metabolic Activation: RAT, LIVER, S-9, AROCLOR 1254, Method: STANDARD PLATE) “inactive; negative”. Also, the mutagenic call is “inactive; negative” under setting [5]; “inactive; negative” under setting [6]; “inactive; negative” (Test System: AMES SALMONELLA TYPHIMURIUM, Strain/Indicator: TA1538, Metabolic Activation: NONE, Method: STANDARD PLATE); “inactive; negative” (Test System: AMES SALMONELLA TYPHIMURIUM, Strain/Indicator: TA1538, Metabolic Activation: RAT, LIVER, S-9, AROCLOR 1254, Method: STANDARD PLATE); “inactive; negative” (Test System: UDS RAT HEPATOCYTES, Strain/Indicator: THY INCORP, Metabolic Activation: NONE, Method: AUTORADIOGRAPHY).
For the compound `[Br][Pt-2]([Br])([Br])([Br])([Br])[Br]`, the mutagenic call under setting [7] was “inactive; negative”; the mutagenic call (Test System: AMES SALMONELLA TYPHIMURIUM, Strain/Indicator: TA98, Metabolic Activation: RAT, LIVER, S-9, AROCLOR 1254, Method: PREINCUBATION) was “inactive; negative”; the mutagenic call under setting [9] was “inactive; negative”; the mutagenic call (Test System: AMES SALMONELLA TYPHIMURIUM, Strain/Indicator: TA100, Metabolic Activation: RAT, LIVER, S-9, AROCLOR 1254, Method: PREINCUBATION) is “inactive; negative”.
